The NIST ThermoML archive (doi:10.1021/je300997v)
Numbers after ± are expanded uncertainties.

What was measured:
[1] = xn = mol fraction of the nth substance listed; conditions: 298.2 K, 101 kPa, Liquid; for viscosity: Capillary tube (Ostwald / Ubbelohde) method; for mass density: Pycnometric method; for electrical conductivity: conductivity meter
[2] = Crystal; DTA

| Normal melting temperature [2] | SMILES | viscosity ([1]; x1 = 0.6667) | viscosity ([1]; x1 = 0.75) | viscosity ([1]; x1 = 0.7963) | viscosity ([1]; x1 = 0.8333) | viscosity ([1]; x1 = 0.8571) | mass density ([1]; x1 = 0.6667) | mass density ([1]; x1 = 0.75) | mass density ([1]; x1 = 0.7963) | mass density ([1]; x1 = 0.8333) | mass density ([1]; x1 = 0.8571) | electrical conductivity ([1]; x1 = 0.6667) | electrical conductivity ([1]; x1 = 0.75) | electrical conductivity ([1]; x1 = 0.7963) | electrical conductivity ([1]; x1 = 0.8333) | electrical conductivity ([1]; x1 = 0.8571) |
| --- | --- | --- | --- | --- | --- | --- | --- | --- | --- | --- | --- | --- | --- | --- | --- | --- |
| – | Cc1ccccc1O [2-methylphenol] + C[N+](C)(C)CCO.[Cl-] | 207.41 ± 12 mPa·s | 77.65 ± 4 mPa·s | 46.95 ± 2 mPa·s | 34.9 ± 1.4 mPa·s | 27.82 ± 1.1 mPa·s | 1077.6 ± 1.2 kg/m3 | 1070.7 ± 1.2 kg/m3 | 1066.4 ± 1.2 kg/m3 | 1063.1 ± 1.2 kg/m3 | 1060.6 ± 1.2 kg/m3 | 0.083 ± 0.001 S/m | 0.121 ± 0.002 S/m | 0.141 ± 0.002 S/m | 0.145 ± 0.002 S/m | 0.138 ± 0.002 S/m |
| 304.1 ± 0.5 °C | C[N+](C)(C)CCO.[Cl-] [choline chloride] | – | – | – | – | – | – | – | – | – | – | – | – | – | – | – |
